Tests used:
[1] = biological target: T1, α2A-adrenergic receptor (Homo sapiens, UniProt P08913); assay: intrinsic activity (antagonist) assay, Tango ADRA2A-bla U2OS DA cells, FRET; assay type: cell-based; conditions: for Kb: antagonist, ADRA2A-bla U2OS DA cells, ± SEM, two independent experiments; for functional selectivity for α2A-AR over α2B-AR subtype: from Kb values α2A vs α2B
T1 construct: host or cells: U2OS (Tango ADRA2A-bla U2OS DA)
T1 sequence (P08913 1-465): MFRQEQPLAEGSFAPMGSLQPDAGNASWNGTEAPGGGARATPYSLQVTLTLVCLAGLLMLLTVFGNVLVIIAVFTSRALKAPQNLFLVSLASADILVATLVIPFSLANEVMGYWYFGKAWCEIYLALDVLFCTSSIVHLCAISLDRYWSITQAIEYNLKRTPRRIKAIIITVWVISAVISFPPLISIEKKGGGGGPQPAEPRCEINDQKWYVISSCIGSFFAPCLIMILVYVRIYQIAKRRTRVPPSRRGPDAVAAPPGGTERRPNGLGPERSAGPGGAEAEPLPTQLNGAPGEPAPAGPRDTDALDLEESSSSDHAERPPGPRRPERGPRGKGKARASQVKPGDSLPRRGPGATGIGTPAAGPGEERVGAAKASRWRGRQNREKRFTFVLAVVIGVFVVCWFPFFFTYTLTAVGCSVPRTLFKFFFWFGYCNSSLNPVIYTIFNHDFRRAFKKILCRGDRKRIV
Experimental: Intrinsic activity assays for α2A-adrenergic receptor were performed according to the instructions of the manufacturer of the assay kit containing the ready to use cells with stable expression of the α2A-adrenoceptor (Invitrogen, Life Technologies, Waltham, MA, USA). Tango™ ADRA2A-bla U2OS DA cells (10,000 cells/well) were plated in a 384-well format and incubated for 20 h. […] Cells were then loaded with LiveBLAzer™-FRET B/G substrate for 2 h.

[2] = biological target: T2, human D2L receptor (Homo sapiens, UniProt P14416); assay: radioligand binding, [3H]-raclopride displacement at D2LR in HEK293 cells; conditions: HEK-293 cells, ± SEM; read-out: Ki [nM] D2
T2 construct: expressed in transfected cells; host or cells: HEK293
T2 sequence (P14416 whole entry): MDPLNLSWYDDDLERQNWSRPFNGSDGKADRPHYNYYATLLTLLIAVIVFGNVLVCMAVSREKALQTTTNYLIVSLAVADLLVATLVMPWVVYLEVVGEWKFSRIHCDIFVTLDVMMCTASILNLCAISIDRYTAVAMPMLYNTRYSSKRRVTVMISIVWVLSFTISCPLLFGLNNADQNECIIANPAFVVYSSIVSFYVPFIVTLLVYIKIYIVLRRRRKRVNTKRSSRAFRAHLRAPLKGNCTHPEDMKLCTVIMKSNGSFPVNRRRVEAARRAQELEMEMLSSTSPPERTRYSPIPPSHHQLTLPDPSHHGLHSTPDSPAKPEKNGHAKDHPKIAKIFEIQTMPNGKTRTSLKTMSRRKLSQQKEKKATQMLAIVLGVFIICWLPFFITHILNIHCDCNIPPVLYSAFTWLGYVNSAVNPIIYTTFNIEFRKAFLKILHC
Experimental: All experiments were performed using HEK293 cells stably expressing human 5-HT1A, 5-HT6, 5-HT7b, and D2L receptors or CHO-K1 cells with a plasmid containing the human 5-HT2A receptor coding sequence (PerkinElmer, Waltham, MA, USA), according to previously reported procedures. Cells were cultured in 150 cm^2 flasks and, after reaching a 90% confluence, were washed with PBS and the centrifugated (200 g) in PBS containing 0.1 mM EDTA and 1 mM dithiothreitol. Cell pellets were subsequently homogenized (in Ultra Turrax tissue homogenizer) and centrifugated twice (35,000× g for 15 min at 4 °C), with 15 min incubation at 37 °C between the centrifugations. All assays were incubated in dedicated buffers and in a total volume of 200 µL in 96-well microtitre plates for 1 h at 37 °C, except for 5-HT1AR and 5-HT2AR that was incubated for 1 h at room temperature. The process of equilibration is terminated by rapid filtration through Unifilter-96 (PerkinElmer) plates with a 96-well cell harvester and radioactivity retained on the filters was quantified on a Microbeta plate reader (PerkinElmer, USA). For displacement studies, the following assay samples containing the proper radioligand were used: 2.5 nM [^3H]-8-OH-DPAT (PerkinElmer, #NET929001MC) for 5-HT1AR; 1 nM [^3H]-ketanserin (PerkinElmer, #NET791250UC) for 5-HT2AR; 2 nM [^3H]-LSD (PerkinElmer, #NET638250UC) for 5-HT6R; and 0.8 nM [^3H]-5-CT (PerkinElmer, #NET1188U100UC) for 5-HT7R or 2.5 nM [^3H]-raclopride (PerkinElmer, #NET975001MC) for D2LR. Non-specific binding was determined using 10 μM 5-HT for 5-HT1AR and 5-HT7R, 20 μM mianserin for 5-HT2AR, 10 μM methiothepine for 5-HT6R, and 10 μM haloperidol for D2LR. […] Results were expressed as means of at least three separate experiments.

[3] = biological target: T3, 5-HT7R (Homo sapiens, UniProt P34969); assay: intrinsic activity at 5-HT7R, LANCE cAMP assay in HEK-293 cells, 5-CT stimulated; assay type: cell-based; conditions: read-out: 5-HT7 Kb
T3 construct: expressed in transfected cells; host or cells: HEK-293 (prepared with Lipofectamine 2000, G418 selection)
T3 sequence (P34969 1-432): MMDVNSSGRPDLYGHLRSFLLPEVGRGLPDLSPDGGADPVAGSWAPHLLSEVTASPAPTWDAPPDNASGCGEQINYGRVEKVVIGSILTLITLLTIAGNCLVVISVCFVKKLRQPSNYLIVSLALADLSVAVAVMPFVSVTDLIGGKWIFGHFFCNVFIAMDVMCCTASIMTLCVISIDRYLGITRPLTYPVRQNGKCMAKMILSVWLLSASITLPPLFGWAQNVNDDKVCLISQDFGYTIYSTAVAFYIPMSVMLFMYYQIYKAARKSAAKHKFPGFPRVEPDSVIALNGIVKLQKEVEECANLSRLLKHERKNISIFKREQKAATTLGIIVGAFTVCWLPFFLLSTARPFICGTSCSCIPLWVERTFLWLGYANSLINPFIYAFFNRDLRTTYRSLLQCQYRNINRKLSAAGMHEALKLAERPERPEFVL
Experimental: Cells (prepared with the use of Lipofectamine 2000) were maintained at 37 °C in a humidified atmosphere with 5% CO2 and grown in Dulbeco’s Modifier Eagle Medium containing 10% dialyzed fetal bovine serum and […] G418 sulphate. For functional experiments, cells were subcultured in 25 cm diameter dishes, grown to 90% confluence, washed twice with pre-warmed to 37 °C phosphate buffered saline (PBS) and were centrifuged for 5 min (160× g). The supernatant was aspirated, then the cell pellet was resuspended in stimulation buffer (1 × HBSS, 5 mM HEPES, 0.5 mM IBMX, 0.1% BSA). The cAMP level was measured using the LANCE cAMP detection kit (PerkinElmer), according to the manufacturer’s directions. […] Cells (5 µL) were incubated with compounds (5 µL) for 30 min at room temperature in 384-well white opaque microtiter plate. After incubation, the reaction was stopped, and cells were lysed by the addition of 10 µL working solution (5 µL Eu-cAMP and 5 µL ULight-anti-cAMP). The assay plate was incubated for 1 h at room temperature. Time-resolved fluorescence resonance energy transfer (TR-FRET) was detected by an Infinite M1000 Pro (Tecan) using instrument settings from LANCE cAMP detection kit manual. Kb values were calculated from the Cheng–Prusoff equation specific for the analysis of functional inhibition curves: Kb = IC50/(1+A/EC50) where A is the agonist concentration, IC50 is the concentration of the antagonist producing a 50% reduction in the response to the agonist, and EC50 is the agonist concentration which causes half of the maximal response.

[4] = biological target: T4, 5-HT1AR (Homo sapiens, UniProt P08908); assay: functional profiling at 5-HT1AR, cAMP-based assays (Eurofins); assay type: cell-based; conditions: cAMP-based assay; for 5-HT1AR antagonist property: at 1 µM; for EC50: read-out: 5-HT1AR agonist activity EC50
T4 construct: Eurofins Scientific, France
T4 sequence (P08908 1-422): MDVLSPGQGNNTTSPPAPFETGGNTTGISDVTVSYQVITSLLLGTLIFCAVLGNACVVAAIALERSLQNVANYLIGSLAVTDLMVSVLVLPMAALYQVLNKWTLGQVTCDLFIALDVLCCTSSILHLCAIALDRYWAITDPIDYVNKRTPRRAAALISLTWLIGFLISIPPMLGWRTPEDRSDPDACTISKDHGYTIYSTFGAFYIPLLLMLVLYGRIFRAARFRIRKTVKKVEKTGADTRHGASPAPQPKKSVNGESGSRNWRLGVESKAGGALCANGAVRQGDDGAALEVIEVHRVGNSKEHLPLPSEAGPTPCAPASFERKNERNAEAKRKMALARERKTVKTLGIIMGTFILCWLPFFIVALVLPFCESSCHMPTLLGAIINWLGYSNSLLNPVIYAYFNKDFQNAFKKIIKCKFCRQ

CC1(C)Cc2cccc(OCCN3CCC(NS(=O)(=O)c4ccc(F)cc4)CC3)c2O1 [Compound 6, 4-Fluoro-N-{1-[2-(2,2-dimethyl-2,3-dihydrobenzofuran-7-yloxy)ethyl]piperidin-4-yl} benzenesulfonamide] was tested, and the Kb [1] was 12 ± 4 nM, the “functional selectivity for α2A-AR over α2B-AR subtype” value (“functional selectivity for α2A-AR” for short) [1] was “up to seven” and the Ki [2] was 327 ± 29 nM. The Kb [3] was 186 ± 37 nM, the 5-HT1AR antagonist property [4] was “no antagonist property” and the EC50 [4] was > 4000 nM.
CC1(C)Cc2cccc(OCCN3CCC(NS(=O)(=O)c4cc(Cl)ccc4F)CC3)c2O1 [Compound 8, 5-Chloro-2-fluoro-N-{1-[2-(2,2-dimethyl-2,3-dihydrobenzofuran-7-yloxy)ethyl]piperidin-4-yl}benzenesulfonamide] was tested, and the Kb [1] was 40 ± 11 nM, the “functional selectivity for α2A-AR” value [1] was “four” and the Ki [2] was 388 ± 37 nM. For the same compound, the Kb [3] was 141 ± 43 nM, the 5-HT1AR antagonist property [4] was “no antagonist property” and the EC50 [4] was > 4000 nM.
With CC1(C)Cc2cccc(OCCN3CCC(NS(=O)(=O)c4cncc5ccccc45)CC3)c2O1 [Compound 13, 4-Isoquinoline-N-{1-[2-(2,2-dimethyl-2,3-dihydrobenzofuran-7-yloxy)ethyl]piperidin-4-yl}sulfonamide] the Kb [1] was 31 ± 8 nM, the “functional selectivity for α2A-AR” value [1] was “did not show any preference” and the Ki [2] was 326 ± 25 nM. For the same compound, the Kb [3] was 155 ± 30 nM, the 5-HT1AR antagonist property [4] was “no antagonist property” and the EC50 [4] was > 4000 nM.
